Key:
Type in all cases: in vivo
[1] = tested on: Italian ryegrass (Lolium multiflorum); experiment: Test A preemergence, visual plant response rating; conditions: approx. 10 days
In short: (§1)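 Ratings use a 0–100 visual scale (100 = complete control) against untreated controls, scored about 10 days after greenhouse treatment. Test chemicals were formulated in surfactant-containing non-phytotoxic solvent and applied either as soil spray after planting (preemergence) or onto one- to two-leaf, 2–10 cm plants (postemergence).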

[2] = tested on: barnyardgrass (Echinochloa crus-galli); experiment: Test A preemergence, visual plant response rating; conditions: approx. 10 days
In short: as §1

[3] = tested on: foxtail, green (green foxtail, Setaria viridis); experiment: Test A preemergence, visual plant response rating; conditions: approx. 10 days
In short: as §1

[4] = tested on: kochia (Kochia scoparia); experiment: Test A preemergence, visual plant response rating; conditions: approx. 10 days
In short: as §1

[5] = tested on: pigweed (Amaranthus retroflexus); experiment: Test A preemergence, visual plant response rating; conditions: approx. 10 days
In short: as §1

[6] = tested on: ragweed (common ragweed, Ambrosia elatior); experiment: Test A preemergence, visual plant response rating; conditions: approx. 10 days
In short: as §1

[7] = tested on: Italian ryegrass (Lolium multiflorum); experiment: Test A postemergence, visual plant response rating; conditions: for Ryegrass, Italian plant response rating (0 to 100 scale): 500 g ai/ha, postemergence, 0 is no effect, 100 is complete control; for Ryegrass, Italian plant response rating: Postemergence, 125 g ai/ha, 0 to 100 scale (0 no effect, 100 complete control)
In short: as §1

[8] = tested on: barnyardgrass (Echinochloa crus-galli); experiment: Test A postemergence, visual plant response rating; conditions: for Barnyardgrass plant response rating (0 to 100 scale): 500 g ai/ha, postemergence, 0 is no effect, 100 is complete control; for Barnyardgrass plant response rating: Postemergence, 125 g ai/ha, 0 to 100 scale (0 no effect, 100 complete control)
In short: as §1

[9] = tested on: blackgrass (Alopecurus myosuroides); experiment: Test A postemergence, visual plant response rating; conditions: for Blackgrass plant response rating (0 to 100 scale): 500 g ai/ha, postemergence, 0 is no effect, 100 is complete control; for Blackgrass plant response rating: Postemergence, 125 g ai/ha, 0 to 100 scale (0 no effect, 100 complete control)
In short: as §1

[10] = tested on: corn (Zea mays); experiment: Test A postemergence, visual plant response rating; conditions: for Corn plant response rating (0 to 100 scale): 500 g ai/ha, postemergence, 0 is no effect, 100 is complete control; for Corn plant response rating: Postemergence, 125 g ai/ha, 0 to 100 scale (0 no effect, 100 complete control)
In short: as §1

[11] = tested on: foxtail, green (green foxtail, Setaria viridis); experiment: Test A postemergence, visual plant response rating; conditions: for Foxtail, Green plant response rating (0 to 100 scale): 500 g ai/ha, postemergence, 0 is no effect, 100 is complete control; for Foxtail, Green plant response rating: Postemergence, 125 g ai/ha, 0 to 100 scale (0 no effect, 100 complete control)
In short: as §1

[12] = tested on: galium (catchweed bedstraw, Galium aparine); experiment: Test A postemergence, visual plant response rating; conditions: for Galium plant response rating (0 to 100 scale): 500 g ai/ha, postemergence, 0 is no effect, 100 is complete control; for Galium plant response rating: Postemergence, 125 g ai/ha, 0 to 100 scale (0 no effect, 100 complete control)
In short: as §1

[13] = tested on: kochia (Kochia scoparia); experiment: Test A postemergence, visual plant response rating; conditions: for Kochia plant response rating (0 to 100 scale): 500 g ai/ha, postemergence, 0 is no effect, 100 is complete control; for Kochia plant response rating: Postemergence, 125 g ai/ha, 0 to 100 scale (0 no effect, 100 complete control)
In short: as §1

[14] = tested on: pigweed (Amaranthus retroflexus); experiment: Test A postemergence, visual plant response rating; conditions: for Pigweed plant response rating (0 to 100 scale): 500 g ai/ha, postemergence, 0 is no effect, 100 is complete control; for Pigweed plant response rating: Postemergence, 125 g ai/ha, 0 to 100 scale (0 no effect, 100 complete control)
In short: as §1

[15] = tested on: ragweed (common ragweed, Ambrosia elatior); experiment: Test A postemergence, visual plant response rating; conditions: for Ragweed plant response rating (0 to 100 scale): 500 g ai/ha, postemergence, 0 is no effect, 100 is complete control; for Ragweed plant response rating: Postemergence, 125 g ai/ha, 0 to 100 scale (0 no effect, 100 complete control)
In short: as §1

[16] = tested on: wheat (Triticum aestivum); experiment: Test A postemergence, visual plant response rating; conditions: for Wheat plant response rating (0 to 100 scale): 500 g ai/ha, postemergence, 0 is no effect, 100 is complete control; for Wheat plant response rating: Postemergence, 125 g ai/ha, 0 to 100 scale (0 no effect, 100 complete control)
In short: as §1

[17] = tested on: barnyardgrass (Echinochloa crus-galli); experiment: Test B flooded paddy test, visual plant response rating; conditions: 250 g ai/ha, Flood, applied to paddy water, 2-leaf stage, evaluated after 13 to 15 days
In short: (§2)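 At the two-leaf stage, seedlings received compound applied to paddy water flooded 3 cm above soil, a level sustained until assessment. Greenhouse incubation lasted 13 to 15 days before visual comparison with control plants.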

[18] = tested on: ducksalad (Heteranhera limosa); experiment: as above; conditions: 250 g ai/ha, Flood, applied to paddy water, 2-leaf stage, evaluated after 13 to 15 days
In short: as §2

[19] = tested on: rice (Oryza sativa); experiment: as above; conditions: 250 g ai/ha, Flood, applied to paddy water, 2-leaf stage, evaluated after 13 to 15 days
In short: as §2

[20] = tested on: sedge, umbrella (small-flower umbrella sedge, Cyperus difformis); experiment: as above; conditions: 250 g ai/ha, Flood, applied to paddy water, 2-leaf stage, evaluated after 13 to 15 days
In short: as §2

Row | Structure (SMILES) | Ryegrass, Italian plant response rating (0 to 100 scale) ([1]; 125 g ai/ha Preemergence) | Ryegrass, Italian plant response rating (0 to 100 scale) ([1]; 500 g ai/ha Preemergence) | Barnyardgrass plant response rating (0 to 100 scale) ([2]; 125 g ai/ha Preemergence) | Barnyardgrass plant response rating (0 to 100 scale) ([2]; 500 g ai/ha Preemergence) | Foxtail, Green plant response rating (0 to 100 scale) ([3]; 125 g ai/ha Preemergence) | Foxtail, Green plant response rating (0 to 100 scale) ([3]; 500 g ai/ha Preemergence) | Kochia plant response rating (0 to 100 scale) ([4]; 125 g ai/ha Preemergence) | Kochia plant response rating (0 to 100 scale) ([4]; 500 g ai/ha Preemergence) | Pigweed plant response rating (0 to 100 scale) ([5]; 125 g ai/ha Preemergence) | Pigweed plant response rating (0 to 100 scale) ([5]; 500 g ai/ha Preemergence) | Ragweed plant response rating (0 to 100 scale) ([6]; 125 g ai/ha Preemergence) | Ragweed plant response rating (0 to 100 scale) ([6]; 500 g ai/ha Preemergence) | Ryegrass, Italian plant response rating (0 to 100 scale) [7] | Ryegrass, Italian plant response rating [7] | Barnyardgrass plant response rating (0 to 100 scale) [8] | Barnyardgrass plant response rating [8] | Blackgrass plant response rating (0 to 100 scale) [9] | Blackgrass plant response rating [9] | Corn plant response rating (0 to 100 scale) [10] | Corn plant response rating [10] | other results
1 | CO/N=C(\c1cccc(C)c1)c1c(O)c(C)nn(C)c1=O [Compound 13] | 50 | 100 | 0 | 80 | 0 | 20 | 30 | 30 | 90 | 80 | 30 | 100 | 90 | 80 | 50 | 10 | 50 | 10 | 10 | 0 | Foxtail, Green plant response rating (0 to 100 scale) [11]: 60; Foxtail, Green plant response rating [11]: 10; Galium plant response rating (0 to 100 scale) [12]: 100; Galium plant response rating [12]: 90; Kochia plant response rating (0 to 100 scale) [13]: 60; Kochia plant response rating [13]: 20; Pigweed plant response rating (0 to 100 scale) [14]: 90; Pigweed plant response rating [14]: 40; Ragweed plant response rating (0 to 100 scale) [15]: 70; Ragweed plant response rating [15]: 70; Wheat plant response rating (0 to 100 scale) [16]: 0; Wheat plant response rating [16]: 0; Plant response rating, Barnyardgrass (0 to 100 scale, 0 is no effect, 100 is complete control) [17]: 0; Plant response rating, Ducksalad (0 to 100 scale, 0 is no effect, 100 is complete control) [18]: 0; Plant response rating, Rice (0 to 100 scale, 0 is no effect, 100 is complete control) [19]: 0; Plant response rating, Sedge, Umbrella (0 to 100 scale, 0 is no effect, 100 is complete control) [20]: 0
2 | CO/N=C(/c1cccc(C)c1C)c1c(O)c(C)nn(C)c1=O [Compound 23] | 40 | 90 | 0 | 20 | 0 | 50 | 0 | 20 | 30 | 80 | 60 | 90 | 50 | 30 | 0 | 0 | 50 | 20 | 0 | 0 | Foxtail, Green plant response rating (0 to 100 scale) [11]: 0; Foxtail, Green plant response rating [11]: 0; Galium plant response rating (0 to 100 scale) [12]: 60; Galium plant response rating [12]: 50; Kochia plant response rating (0 to 100 scale) [13]: 30; Kochia plant response rating [13]: 10; Pigweed plant response rating (0 to 100 scale) [14]: 80; Pigweed plant response rating [14]: 20; Ragweed plant response rating (0 to 100 scale) [15]: 50; Ragweed plant response rating [15]: 40; Wheat plant response rating (0 to 100 scale) [16]: 0; Wheat plant response rating [16]: 0; Plant response rating, Barnyardgrass (0 to 100 scale, 0 is no effect, 100 is complete control) [17]: 0; Plant response rating, Ducksalad (0 to 100 scale, 0 is no effect, 100 is complete control) [18]: 0; Plant response rating, Rice (0 to 100 scale, 0 is no effect, 100 is complete control) [19]: 0; Plant response rating, Sedge, Umbrella (0 to 100 scale, 0 is no effect, 100 is complete control) [20]: 0
3 | CCn1nc(C)c(O)c(C(=NOC)c2cccc(Cl)c2)c1=O (mixture of isomers) [Compound 2] | 20 | 60 | 0 | 50 | 0 | 50 | 0 | 0 | 0 | 0 | 0 | 0 | 80 | 20 | 30 | 0 | 20 | 0 | 0 | 0 | Foxtail, Green plant response rating (0 to 100 scale) [11]: 20; Foxtail, Green plant response rating [11]: 0; Galium plant response rating (0 to 100 scale) [12]: 30; Galium plant response rating [12]: 10; Kochia plant response rating (0 to 100 scale) [13]: 20; Kochia plant response rating [13]: 10; Pigweed plant response rating (0 to 100 scale) [14]: 10; Pigweed plant response rating [14]: 0; Ragweed plant response rating (0 to 100 scale) [15]: 20; Ragweed plant response rating [15]: 10; Wheat plant response rating (0 to 100 scale) [16]: 10; Wheat plant response rating [16]: 10; Plant response rating, Barnyardgrass (0 to 100 scale, 0 is no effect, 100 is complete control) [17]: 0; Plant response rating, Ducksalad (0 to 100 scale, 0 is no effect, 100 is complete control) [18]: 0; Plant response rating, Rice (0 to 100 scale, 0 is no effect, 100 is complete control) [19]: 0; Plant response rating, Sedge, Umbrella (0 to 100 scale, 0 is no effect, 100 is complete control) [20]: 0

Reference: patent US20210045385A1, “PYRIDAZINONE-SUBSTITUTED KETOXIMES AS HERBICIDES” (FMC Corporation, priority 2018, published 2021)
